Structures can show the parent of a compound that is named as a salt.
system: ISG reporter activity in THP1-Dual cell; test: ISG reporter assay; type: cell-based; details: Homo sapiens, compounds incubated with cells for 24 hours, QUANTI-Blue, absorbance at 655 nm
Protocol: [Worded in the source for another cell line; this cell line is reported under the same test.] THP1-Blue cells (cat. no. thp-isg) were purchased from InvivoGen (Sandiago, USA). Penicillin—streptomycin (cat. no. L0022-100), Fetal Bovine Serum (FBS) (cat. no. S1480-500) and Roswell Park Memorial Institute (RPMI) 1640 media (cat. L0498-500) were purchased from biowest (Nuaille, France). Zeocin (cat. no. ant-zn-OS) and Normocin (cat. no. ant-nr-1) were purchased from InvivoGen (Sandiago, USA). QUANTI-Blue™ (cat. no. rep-qbs) was purchased from InvivoGen. THP1-Blue cells were cultured in RPMI 1640 medium with 10% heat-inactivated FBS, 100 μg/ml Normocin, 100 μg/ml Zeocin and 100 U/ml-100 μg/ml penicillin-streptomycin. The cells were incubated at 37° C. in a humidified atmosphere of 5% CO2.
THP1-Blue cells were seeded at 5×10^4 cells/well (90 μl/well). 10 μl of compounds were added to the cells and incubated for 24 hours. 20 μl of cell culture supernatant was dispensed new 96-well plate (cat. no. 30096) with 180 μl of QUANTI-Blue™ solution and incubated for 15 minutes at 37° C. The absorbance was measured by Varioskan Lux (Thermofisher Scientific, USA) at 655 nm.

Row | Compound | EC50 [nM]
1 | CCn1nc(C)cc1C(=O)Nc1nc2cc(C(=O)NOC)cc(OC)c2n1C/C=C/Cn1c(NC(=O)c2cc(C)nn2CC)nc2cc(C(N)=O)cc(OCC#CCN3CCOCC3)c21 [Example 40, (E)-1-(4-(5-carbamoyl-2-(1-ethyl-3-methyl-1H-pyrazole-5-carboxamido)-7-((4-morpholinobut-2-yn-1-yl)oxy)-1H-benzo[d]imidazol-1-yl)but-2-en-1-yl)-2-(1-ethyl-3-methyl-1H-pyrazole-5-carboxamido)-N,7-dimethoxy-1H-benzo[d]imidazole-5-carboxamide] | 50 to 500
2 | CCn1nc(C)cc1C(=O)Nc1nc2cc(C(N)=O)cc(OC)c2n1C/C=C/Cn1c(NC(=O)c2cc(C)nn2CC)nc2cc(C(N)=O)cc(OCC#CC3CCN(C(=O)N4CCN(C(=O)OC(C)(C)C)CC4)CC3)c21 [Example 16, tert-butyl (E)-4-(4-(3-((5-carbamoyl-1-(4-(5-carbamoyl-2-(1-ethyl-3-methyl-1H-pyrazole-5-carboxamido)-7-methoxy-1H-benzo[d]imidazol-1-yl)but-2-en-1-yl)-2-(1-ethyl-3-methyl-1H-pyrazole-5-carboxamido)-1H-benzo[d]imidazol-7-yl)oxy)prop-1-yn-1-yl)piperidine-1-carbonyl)piperazine-1-carboxylate] | < 50
3 | CCn1nc(C)cc1C(=O)Nc1nc2cc(C(=O)O)cc(OC)c2n1C/C=C/Cn1c(NC(=O)c2cc(C)nn2CC)nc2cc(C(N)=O)cc(OCC#CC3CCN(C(=O)OC(C)(C)C)CC3)c21 [Example 1, (E)-1-(4-(7-((3-(1-(tert-butoxycarbonyl)piperidin-4-yl)prop-2-yn-1-yl)oxy)-5-carbamoyl-2-(1-ethyl-3-methyl-1H-pyrazole-5-carboxamido)-1H-benzo[d]imidazol-1-yl)but-2-en-1-yl)-2-(1-ethyl-3-methyl-1H-pyrazole-5-carboxamido)-7-methoxy-1H-benzo[d]imidazole-5-carboxylic acid] | > 500
4 | CCn1nc(C)cc1C(=O)Nc1nc2cc(C(N)=O)cc(OC)c2n1C/C=C/Cn1c(NC(=O)c2cc(C)nn2CC)nc2cc(C(N)=O)cc(OCC#CC3CCN(C(=O)OCCN(C)C)CC3)c21 [Example 34, 2-(dimethylamino)ethyl (E)-4-(3-((5-carbamoyl-1-(4-(5-carbamoyl-2-(1-ethyl-3-methyl-1H-pyrazole-5-carboxamido)-7-methoxy-1H-benzo[d]imidazol-1-yl)but-2-en-1-yl)-2-(1-ethyl-3-methyl-1H-pyrazole-5-carboxamido)-1H-benzo[d]imidazol-7-yl)oxy)prop-1-yn-1-yl)piperidine-1-carboxylate] | < 50
5 | CCn1nc(C)cc1C(=O)Nc1nc2cc(C(N)=O)cc(OC)c2n1C/C=C/Cn1c(NC(=O)c2cc(C)nn2CC)nc2cc(C(N)=O)cc(OCC#CCC3CCN(S(=O)(=O)C4CC4)CC3)c21 [Example 48, (E)-1-(4-(5-carbamoyl-2-(1-ethyl-3-methyl-1H-pyrazole-5-carboxamido)-7-methoxy-1H-benzo[d]imidazol-1-yl)but-2-en-1-yl)-7-((4-(1-(cyclopropylsulfonyl)piperidin-4-yl)but-2-yn-1-yl)oxy)-2-(1-ethyl-3-methyl-1H-pyrazole-5-carboxamido)-1H-benzo[d]imidazole-5-carboxamide] | < 50
6 | CCn1nc(C)cc1C(=O)Nc1nc2cc(C(=O)NOC)cc(OC)c2n1C/C=C/Cn1c(NC(=O)c2cc(C)nn2CC)nc2cc(C(N)=O)cc(OCC#CCN3CCN(C(=O)C(C)C)CC3)c21 [Example 39, (E)-1-(4-(5-carbamoyl-2-(1-ethyl-3-methyl-1H-pyrazole-5-carboxamido)-7-((4-(4-isobutyrylpiperazin-1-yl)but-2-yn-1-yl)oxy)-1H-benzo[d]imidazol-1-yl)but-2-en-1-yl)-2-(1-ethyl-3-methyl-1H-pyrazole-5-carboxamido)-N,7-dimethoxy-1H-benzo[d]imidazole-5-carboxamide] | > 500
7 | CCn1nc(C)cc1C(=O)Nc1nc2cc(C(N)=O)cc(OC)c2n1C/C=C/Cn1c(NC(=O)c2cc(C)nn2CC)nc2cc(C(N)=O)cc(OCC#CCC3CCN(C(=O)N4CCN(C(=O)OC(C)(C)C)CC4)CC3)c21 [Example 47, tert-butyl (E)-4-(4-(4-((5-carbamoyl-1-(4-(5-carbamoyl-2-(1-ethyl-3-methyl-1H-pyrazole-5-carboxamido)-7-methoxy-1H-benzo[d]imidazol-1-yl)but-2-en-1-yl)-2-(1-ethyl-3-methyl-1H-pyrazole-5-carboxamido)-1H-benzo[d]imidazol-7-yl)oxy)but-2-yn-1-yl)piperidine-1-carbonyl)piperazine-1-carboxylate] | < 50
8 | CCn1nc(C)cc1C(=O)Nc1nc2cc(C(N)=O)cc(OC)c2n1C/C=C/Cn1c(NC(=O)c2cc(C)nn2CC)nc2cc(C(N)=O)cc(OCC#CCC3CCN(C(=O)OC(C)(C)C)CC3)c21 [Example 42, tert-butyl (E)-4-(4-((5-carbamoyl-1-(4-(5-carbamoyl-2-(1-ethyl-3-methyl-1H-pyrazole-5-carboxamido)-7-methoxy-1H-benzo[d]imidazol-1-yl)but-2-en-1-yl)-2-(1-ethyl-3-methyl-1H-pyrazole-5-carboxamido)-1H-benzo[d]imidazol-7-yl)oxy)but-2-yn-1-yl)piperidine-1-carboxylate] | < 50

Now from value to molecule:

Row | EC50 [nM] | Compound
9 | < 50 | CCn1nc(C)cc1C(=O)Nc1nc2cc(C(N)=O)cc(OC)c2n1C/C=C/Cn1c(NC(=O)c2cc(C)nn2CC)nc2cc(C(N)=O)cc(OCC#CC3CCN(S(=O)(=O)N4CCNCC4)CC3)c21 [Example 29, (E)-1-(4-(5-carbamoyl-2-(1-ethyl-3-methyl-1H-pyrazole-5-carboxamido)-7-((3-(1-(piperazin-1-ylsulfonyl)piperidin-4-yl)prop-2-yn-1-yl)oxy)-1H-benzo[d]imidazol-1-yl)but-2-en-1-yl)-2-(1-ethyl-3-methyl-1H-pyrazole-5-carboxamido)-7-methoxy-1H-benzo[d]imidazole-5-carboxamide hydrochloride]
10 | < 50 | CCN(CC)S(=O)(=O)N1CCC(C#CCOc2cc(C(N)=O)cc3nc(NC(=O)c4cc(C)nn4CC)n(C/C=C/Cn4c(NC(=O)c5cc(C)nn5CC)nc5cc(C(N)=O)cc(OC)c54)c23)CC1 [Example 25, (E)-1-(4-(5-carbamoyl-2-(1-ethyl-3-methyl-1H-pyrazole-5-carboxamido)-7-methoxy-1H-benzo[d]imidazol-1-yl)but-2-en-1-yl)-7-((3-(1-(N,N-diethylsulfamoyl)piperidin-4-yl)prop-2-yn-1-yl)oxy)-2-(1-ethyl-3-methyl-1H-pyrazole-5-carboxamido)-1H-benzo[d]imidazole-5-carboxamide]
11 | < 50 | CCn1nc(C)cc1C(=O)Nc1nc2cc(C(N)=O)cc(OC)c2n1C/C=C/Cn1c(NC(=O)c2cc(C)nn2CC)nc2cc(C(N)=O)cc(OCC#CC3CCN(C(=O)OC4CC4)CC3)c21 [Example 6, cyclopropyl (E)-4-(3-((5-carbamoyl-1-(4-(5-carbamoyl-2-(1-ethyl-3-methyl-1H-pyrazole-5-carboxamido)-7-methoxy-1H-benzo[d]imidazol-1-yl)but-2-en-1-yl)-2-(1-ethyl-3-methyl-1H-pyrazole-5-carboxamido)-1H-benzo[d]imidazol-7-yl)oxy)prop-1-yn-1-yl)piperidine-1-carboxylate]
12 | < 50 | CCn1nc(C)cc1C(=O)Nc1nc2cc(C(N)=O)cc(OC)c2n1C/C=C/Cn1c(NC(=O)c2cc(C)nn2CC)nc2cc(C(N)=O)cc(OCC#CC3CCN(S(=O)(=O)C(C)C)CC3)c21 [Example 20, (E)-1-(4-(5-carbamoyl-2-(1-ethyl-3-methyl-1H-pyrazole-5-carboxamido)-7-((3-(1-(isopropylsulfonyl)piperidin-4-yl)prop-2-yn-1-yl)oxy)-1H-benzo[d]imidazol-1-yl)but-2-en-1-yl)-2-(1-ethyl-3-methyl-1H-pyrazole-5-carboxamido)-7-methoxy-1H-benzo[d]imidazole-5-carboxamide]
13 | < 50 | CCn1nc(C)cc1C(=O)Nc1nc2cc(C(N)=O)cc(OC)c2n1C/C=C/Cn1c(NC(=O)c2cc(C)nn2CC)nc2cc(C(N)=O)cc(OCC#CC3CCN(S(=O)(=O)N4CCCC4)CC3)c21 [Example 26, (E)-1-(4-(5-carbamoyl-2-(1-ethyl-3-methyl-1H-pyrazole-5-carboxamido)-7-((3-(1-(pyrrolidin-1-ylsulfonyl)piperidin-4-yl)prop-2-yn-1-yl)oxy)-1H-benzo[d]imidazol-1-yl)but-2-en-1-yl)-2-(1-ethyl-3-methyl-1H-pyrazole-5-carboxamido)-7-methoxy-1H-benzo[d]imidazole-5-carboxamide]
14 | < 50 | CCn1nc(C)cc1C(=O)Nc1nc2cc(C(N)=O)cc(OC)c2n1C/C=C/Cn1c(NC(=O)c2cc(C)nn2CC)nc2cc(C(N)=O)cc(OCC#CC3CCN(S(=O)(=O)N4CCOCC4)CC3)c21 [Example 27, (E)-1-(4-(5-carbamoyl-2-(1-ethyl-3-methyl-1H-pyrazole-5-carboxamido)-7-((3-(1-(morpholinosulfonyl)piperidin-4-yl)prop-2-yn-1-yl)oxy)-1H-benzo[d]imidazol-1-yl)but-2-en-1-yl)-2-(1-ethyl-3-methyl-1H-pyrazole-5-carboxamido)-7-methoxy-1H-benzo[d]imidazole-5-carboxamide]
